Assay [1] concerns A673 cells. Description: Cytotoxicity in A673 cells (Cell Titer Glo viability). The note with it: for Ratio of Biochemical Potency:Cellular Potency: CDK12 IC50 / A673 IC50; for IC50: Homo sapiens. The assay is classed as cell-based. The protocol:
Cells were plated in 96-well plates at a density of […] viable cells per well in 200 μL fully supplemented growth medium (DMEM+10% heat inactivated foetal bovine serum) and incubated for 24 hours in standard tissue culture conditions. Compounds, including MLN4924, were solubilised in DMSO and then diluted in fully supplemented growth medium at 2× their final assay concentration such that the final DMSO concentration was 0.1%. Growth medium in the assay plates was replaced with 50 μL of growth medium containing 2×MLN4924 (final assay concentration: 30 nM, where tested) or vehicle only and 50 μL of growth medium containing a 2× compound concentration series or vehicle only such that each compound was at 1× final assay concentration in 100 μL.
Cells were then incubated for 72 hours in standard tissue culture conditions before viability was assessed using 50 μL Cell Titer Glo reagent (Promega) per well and luminescence measured on an EnVision plate reader. Data were normalised to vehicle control (100%) and cells treated with 0.1% Triton x-100 for 1 hour before viability measurement (0%; full cell kill). […] Viability curves generated in the presence of MLN4924 were normalised and fixed to controls treated with MLN4924.
(Cellular ATP, detected with luciferase, serves as a proxy for viable cell number.)

The target of assay [2] is Human CDK12 wt/CycK (Homo sapiens (Human), UniProt Q9NYV4). Kind of assay: Radiometric protein kinase assay (33PanQinase Activity Assay), CDK12. The assay is classed as biochemical. The note with it: for CDK7/CDK12: ratio of CDK7 IC50 to CDK12 IC50, greater than 1 indicates selectivity for CDK12. On the procedure: (§1) A radiometric protein kinase assay (^33PanQinase® Activity Assay) was used for measuring the kinase activity of the two protein kinases (CDK12/CDK7). All kinase assays were performed in 96-well FlashPlates™ from PerkinElmer (Boston, MA, USA) in a 50 μL reaction volume.
Sequence of Human CDK12 wt/CycK (Q9NYV4 whole entry): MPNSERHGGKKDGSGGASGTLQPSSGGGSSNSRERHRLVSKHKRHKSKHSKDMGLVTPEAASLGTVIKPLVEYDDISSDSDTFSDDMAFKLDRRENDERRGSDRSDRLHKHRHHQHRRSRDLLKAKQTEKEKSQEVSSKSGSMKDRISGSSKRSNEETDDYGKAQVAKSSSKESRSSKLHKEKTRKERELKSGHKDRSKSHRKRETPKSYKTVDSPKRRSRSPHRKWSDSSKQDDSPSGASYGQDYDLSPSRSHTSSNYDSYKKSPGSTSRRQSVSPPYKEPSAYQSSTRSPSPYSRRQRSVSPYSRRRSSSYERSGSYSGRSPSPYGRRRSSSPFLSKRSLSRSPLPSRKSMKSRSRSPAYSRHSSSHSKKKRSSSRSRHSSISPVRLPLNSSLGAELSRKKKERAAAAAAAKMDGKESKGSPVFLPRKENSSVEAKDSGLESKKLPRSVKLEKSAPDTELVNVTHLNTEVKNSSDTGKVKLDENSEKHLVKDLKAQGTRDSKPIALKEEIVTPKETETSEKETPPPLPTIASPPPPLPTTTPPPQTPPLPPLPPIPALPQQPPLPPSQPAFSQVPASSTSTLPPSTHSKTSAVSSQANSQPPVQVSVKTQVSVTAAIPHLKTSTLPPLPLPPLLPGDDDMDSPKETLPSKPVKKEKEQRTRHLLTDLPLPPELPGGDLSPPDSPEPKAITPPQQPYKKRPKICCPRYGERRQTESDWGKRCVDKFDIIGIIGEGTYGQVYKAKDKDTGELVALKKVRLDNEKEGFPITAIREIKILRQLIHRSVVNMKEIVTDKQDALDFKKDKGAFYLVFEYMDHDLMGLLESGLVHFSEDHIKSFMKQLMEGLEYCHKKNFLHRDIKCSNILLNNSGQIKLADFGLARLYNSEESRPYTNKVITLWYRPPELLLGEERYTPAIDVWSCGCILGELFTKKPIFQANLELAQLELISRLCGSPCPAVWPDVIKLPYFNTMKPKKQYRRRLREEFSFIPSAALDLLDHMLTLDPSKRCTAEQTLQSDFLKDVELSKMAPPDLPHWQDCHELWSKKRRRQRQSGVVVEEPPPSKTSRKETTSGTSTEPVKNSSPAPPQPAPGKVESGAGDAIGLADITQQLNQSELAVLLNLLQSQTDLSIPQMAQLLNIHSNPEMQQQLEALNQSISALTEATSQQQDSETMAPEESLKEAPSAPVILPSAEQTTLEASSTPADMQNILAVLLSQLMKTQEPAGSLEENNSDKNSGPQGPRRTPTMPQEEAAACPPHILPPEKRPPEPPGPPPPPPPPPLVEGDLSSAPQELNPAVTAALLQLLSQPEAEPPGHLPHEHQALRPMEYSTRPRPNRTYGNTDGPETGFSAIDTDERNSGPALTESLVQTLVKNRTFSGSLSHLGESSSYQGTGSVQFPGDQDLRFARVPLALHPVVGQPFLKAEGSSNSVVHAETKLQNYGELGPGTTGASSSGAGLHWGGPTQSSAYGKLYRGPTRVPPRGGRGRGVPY
Sequence of Human CDK12 wt/CycK (O75909 whole entry partner): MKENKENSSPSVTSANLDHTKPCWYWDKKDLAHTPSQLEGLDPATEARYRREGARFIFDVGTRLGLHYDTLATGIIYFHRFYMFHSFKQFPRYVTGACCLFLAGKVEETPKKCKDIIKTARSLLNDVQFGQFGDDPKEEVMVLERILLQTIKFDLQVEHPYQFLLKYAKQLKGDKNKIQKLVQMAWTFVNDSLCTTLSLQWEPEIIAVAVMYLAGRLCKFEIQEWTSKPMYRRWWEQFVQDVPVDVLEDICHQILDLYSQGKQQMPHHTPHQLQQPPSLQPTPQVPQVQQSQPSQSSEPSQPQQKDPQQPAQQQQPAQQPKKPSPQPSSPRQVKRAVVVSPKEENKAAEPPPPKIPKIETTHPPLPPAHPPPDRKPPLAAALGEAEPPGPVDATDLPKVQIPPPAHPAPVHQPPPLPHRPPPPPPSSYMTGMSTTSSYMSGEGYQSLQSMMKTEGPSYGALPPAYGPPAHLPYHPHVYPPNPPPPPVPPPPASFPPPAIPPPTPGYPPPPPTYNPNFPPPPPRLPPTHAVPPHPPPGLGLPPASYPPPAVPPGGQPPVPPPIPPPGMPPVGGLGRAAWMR
(§2) The reaction cocktail was pipetted in four steps in the following order: • 20 μL of assay buffer (standard buffer) • 5 μL of ATP solution (in H2O) • 5 μL of test compound (in 10% DMSO) • 10 μL of substrate/10 μL of enzyme solution (premixed)
(§3) The reaction mixture was incubated at 30° C. for 60 min and then stopped by the addition of 2% (v/v) H3PO4. Plates were aspirated and washed two times with 200 μL 0.9% (w/v) NaCl. Incorporation of ^33Pi was determined with a microplate scintillation count (Microbeta, Wallac).
The fitting method used was a least-squares fit.

The target in assay [3] is Human CDK7/CycH/MAT1 (Homo sapiens (Human), UniProt P50613). Description: Radiometric protein kinase assay (33PanQinase Activity Assay), CDK7. The assay is classed as biochemical. The note with it: ATP 3 μM. The protocol:
Additionally for the CDK7 assay: • Human CDK7/CycH/MAT1 (ProQinase, 0366-0360-4—Lot 2). • RBER-CHKtide (ProQinase, 0581-0000-5—Lot 106).
as §1, §2
For the CDK7 assay, a reaction mixture (50 μL) containing the following components was prepared: • 70 mM HEPES-NaOH (pH 7.5); • sodium orthovanadate (3 μM); • PEG-20000 (50 μg/mL); • DTT (1.2 mM); • MgCl2 (3 mM); • MnCl2 (3 mM); • purified human CDK7/CycH/MAT1 (3.3 nM—Lot 02); • RBER-CHKtide substrate (40 μg/mL—Lot 106); • ATP (3 μM); • [γ-33P]-ATP (approx. 8×10^5 cpm per well); and • test compound at the appropriate concentration such that the final concentration of DMSO was […].
as §3
The residual activities for each concentration and the compound IC50 values were calculated using Quattro Workflow V3.1.1 (Quattro Research GmbH, Munich, Germany). The fitting model for the IC50 determinations was “Sigmoidal response (variable slope)” with parameters “top” fixed at 100% and “bottom” at 0%. The fitting method used was a least-squares fit.

Setting [4] is: A673, read-out: Cellular Potency IC50 (nM) (in A673 cells).
The mark [5] stands for this setting: A673 cells, 72 hours, read-out: A673 IC50.
Where [6] appears, read: ATP 0.3 μM, read-out: CDK12 IC50.
Setting [7] is: read-out: CKD12 Biochemical Potency IC50.

Like-named read-outs stand apart in the source and are kept apart here.

Sequence of Human CDK7/CycH/MAT1 (P50613 whole entry): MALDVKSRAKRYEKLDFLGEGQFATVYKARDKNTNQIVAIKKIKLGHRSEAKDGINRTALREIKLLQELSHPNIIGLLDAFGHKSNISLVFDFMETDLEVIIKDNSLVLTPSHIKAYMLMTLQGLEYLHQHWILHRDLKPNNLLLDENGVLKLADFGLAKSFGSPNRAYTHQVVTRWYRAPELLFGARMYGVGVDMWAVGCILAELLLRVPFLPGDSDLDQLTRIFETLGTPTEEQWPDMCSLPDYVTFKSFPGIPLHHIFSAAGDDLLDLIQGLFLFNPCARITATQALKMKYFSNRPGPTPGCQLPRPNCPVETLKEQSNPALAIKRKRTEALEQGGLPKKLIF
Sequence of Human CDK7/CycH/MAT1 (P51946 whole entry partner): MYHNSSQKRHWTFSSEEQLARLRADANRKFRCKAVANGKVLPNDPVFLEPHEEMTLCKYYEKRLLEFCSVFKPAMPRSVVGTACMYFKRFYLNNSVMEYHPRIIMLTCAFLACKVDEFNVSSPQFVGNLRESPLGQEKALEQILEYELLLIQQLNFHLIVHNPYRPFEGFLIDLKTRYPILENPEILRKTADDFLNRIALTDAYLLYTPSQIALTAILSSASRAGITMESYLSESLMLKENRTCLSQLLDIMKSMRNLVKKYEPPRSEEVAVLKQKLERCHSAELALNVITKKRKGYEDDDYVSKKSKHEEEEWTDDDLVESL
Sequence of Human CDK7/CycH/MAT1 (P51948 whole entry partner): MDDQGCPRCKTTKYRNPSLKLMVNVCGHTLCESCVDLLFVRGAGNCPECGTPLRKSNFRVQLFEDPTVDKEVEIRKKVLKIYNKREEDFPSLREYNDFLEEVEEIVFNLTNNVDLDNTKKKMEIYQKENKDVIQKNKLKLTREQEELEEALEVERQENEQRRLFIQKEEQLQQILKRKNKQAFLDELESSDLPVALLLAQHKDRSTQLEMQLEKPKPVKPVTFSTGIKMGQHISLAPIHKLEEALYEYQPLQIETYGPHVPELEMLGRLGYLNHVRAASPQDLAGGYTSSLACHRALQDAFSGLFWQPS

As a reminder, the IC50 is the midpoint of a concentration-inhibition curve. Consider `c1ccc(-c2ccc(CNc3cc(N4CCOCC4)nc4c(C5CC5)cnn34)cc2)nc1` [PPA-033], for which the “Ratio of Biochemical Potency:Cellular Potency” value (“Ratio” for short) in assay [1] stood at 19.81. Moreover, the IC50 in assay [1] (setting [4]) came to 53 nM; in assay [1] (setting [5]), 53 nM; in assay [2] (setting [6]), 1050 nM; in assay [2] (setting [7]), 1050 nM; in assay [3], 6650 nM. For the same molecule, the CDK7/CDK12 in assay [2] is 6.3.
For the molecule `O[C@H]1CNCC[C@@H]1CNc1cc(NCc2ccc(-c3ncccc3C(F)(F)F)cc2)n2ncc(C3CC3)c2n1` [PPA-036], the “Ratio” value in assay [1] was found to be 0.78. Moreover, the IC50 in assay [1] (setting [4]) is 312 nM; in assay [1] (setting [5]), 312 nM; in assay [2] (setting [6]) it was 245 nM; in assay [2] (setting [7]), 245 nM; in assay [3] it was 388 nM. The CDK7/CDK12 in assay [2] came to 1.6.
For the molecule `Cc1cccnc1-c1ccc(CNc2cc(NC[C@H]3CCNC[C@@H]3O)nc3c(C(C)C)cnn23)cc1` [PPA-012], the “Ratio” value in assay [1] stood at 13.33. For the same molecule, the IC50 in assay [1] (setting [4]) is 14.1 nM; in assay [1] (setting [5]), 14.1 nM; in assay [2] (setting [6]), 188 nM; in assay [2] (setting [7]), 188 nM; in assay [3], 165 nM. Also, in assay [2], the CDK7/CDK12 was 0.9.
As for `c1ccc(-c2ccc(CNc3cc(NC[C@H]4CNCCO4)nc4c(C5CC5)cnn34)cc2)nc1` [PPA-032], the “Ratio” value in assay [1] was determined as 22.52. The IC50 is 51.5 nM in assay [1] (setting [4]); 51.5 nM in assay [1] (setting [5]); 1160 nM in assay [2] (setting [6]); 1160 nM in assay [2] (setting [7]); 2760 nM in assay [3]. In addition, the CDK7/CDK12 in assay [2] came out at 2.4.
On to `CC(C)c1cnn2c(NCc3ccc(-c4ccccn4)cc3)cc(NC[C@H]3CCNC[C@@H]3O)nc12` [PPA-001, (3R,4R)-4-(((3-isopropyl-7-((4-(pyridin-2-yl)benzyl)amino)pyrazolo[1,5-a]pyrimidin-5-yl)amino)methyl)piperidin-3-ol], for which the “Ratio” value in assay [1] came out at 21.79. In addition, the IC50 was 2.8 nM in assay [1] (setting [4]); 2.8 nM in assay [1] (setting [5]); 61 nM in assay [2] (setting [6]); 61 nM in assay [2] (setting [7]); 162 nM in assay [3]. The CDK7/CDK12 in assay [2] worked out at 2.7.
For the molecule `c1ccc(-c2ccc(CNc3cc(-c4ccn[nH]4)nc4c(C5CC5)cnn34)cc2)nc1` [PPA-079], the “Ratio” value in assay [1] is recorded as less than 11.9. The IC50 in assay [1] (setting [4]) is greater than 100 nM; in assay [1] (setting [5]), greater than 100 nM; in assay [2] (setting [6]), 1190 nM; in assay [2] (setting [7]), 1190 nM; in assay [3] it was greater than 30000 nM.
Regarding `c1ccc(-c2ccc(CNc3cc(O[C@@H]4CCCNC4)nc4c(C5CC5)cnn34)cc2)nc1` [PPA-061], the “Ratio” value in assay [1] is 18.30. Further, the IC50 in assay [1] (setting [4]) worked out at 5.3 nM; in assay [1] (setting [5]) it was 5.3 nM; in assay [2] (setting [6]), 97 nM; in assay [2] (setting [7]), 97 nM; in assay [3], 1260 nM. Also, the CDK7/CDK12 in assay [2] is 13.0.
For the molecule `O[C@H]1CNCC[C@@H]1CNc1cc(NCc2ccc(-c3ncccc3OC(F)(F)F)cc2)n2ncc(C3CC3)c2n1` [PPA-028], the “Ratio” value in assay [1] was found to be 24.95. Further, the IC50 in assay [1] (setting [4]) is 9.7 nM; in assay [1] (setting [5]) it was 9.7 nM; in assay [2] (setting [6]) it was 242 nM; in assay [2] (setting [7]), 242 nM; in assay [3], 468 nM. The CDK7/CDK12 in assay [2] amounted to 1.9.
Turning to `CN(C[C@H]1CCNC[C@@H]1O)c1cc(NCc2ccc(-c3ccccn3)cc2)n2ncc(C3CC3)c2n1` [PPA-053], the “Ratio” value in assay [1] is listed as 21.20. The IC50 in assay [1] (setting [4]) amounted to 2.5 nM; in assay [1] (setting [5]), 2.5 nM; in assay [2] (setting [6]) it was 53 nM; in assay [2] (setting [7]), 53 nM; in assay [3] it was 169 nM. In assay [2], the CDK7/CDK12 came to 3.2.
Take `O[C@H]1CNCC[C@@H]1CNc1cc(NCc2cn(-c3ccccn3)cn2)n2ncc(C3CC3)c2n1` [PPA-025]: in assay [1], the “Ratio” value came to 13.22. Also, the IC50 in assay [1] (setting [4]) came to 5.9 nM; in assay [1] (setting [5]), 5.9 nM; in assay [2] (setting [6]), 78 nM; in assay [2] (setting [7]), 78 nM; in assay [3], 587 nM. Moreover, in assay [2], the CDK7/CDK12 amounted to 7.5.
For the molecule `FC1(CNc2cc(NCc3ccc(-c4ccccn4)cc3)n3ncc(C4CC4)c3n2)CCNCC1` [PPA-062], the “Ratio” value in assay [1] amounted to 34.25. For the same molecule, the IC50 in assay [1] (setting [4]) came to 13.4 nM; in assay [1] (setting [5]), 13.4 nM; in assay [2] (setting [6]), 459 nM; in assay [2] (setting [7]) it was 459 nM; in assay [3], 3640 nM. Further, in assay [2], the CDK7/CDK12 is listed as 7.9.
In the case of `COc1cc(CNc2cc(NC[C@H]3CCNC[C@@H]3O)nc3c(C4CC4)cnn23)ccc1-c1ccccn1` [PPA-015], the “Ratio” value in assay [1] is given as 1.31. Besides, the IC50 amounted to 179 nM in assay [1] (setting [4]); 179 nM in assay [1] (setting [5]); 235 nM in assay [2] (setting [6]); 235 nM in assay [2] (setting [7]); 445 nM in assay [3]. The CDK7/CDK12 in assay [2] is on record as 1.9.
With `c1ccc(-c2ccc(CNc3cc(N4CCNC5(CC5)C4)nc4c(C5CC5)cnn34)cc2)nc1` [PPA-077], the “Ratio” value in assay [1] amounted to 5.47. Also, the IC50 in assay [1] (setting [4]) was determined as 7.5 nM; in assay [1] (setting [5]), 7.5 nM; in assay [2] (setting [6]), 41 nM; in assay [2] (setting [7]) it was 41 nM; in assay [3], 1390 nM. Moreover, the CDK7/CDK12 in assay [2] is recorded as 33.9.
On to `Cc1nccn1-c1ccc(CNc2cc(NC[C@H]3CCNC[C@@H]3O)nc3c(C4CC4)cnn23)cc1` [PPA-023], for which the “Ratio” value in assay [1] is on record as less than 0.47. In addition, the IC50 is greater than 500 nM in assay [1] (setting [4]); greater than 500 nM in assay [1] (setting [5]); 236 nM in assay [2] (setting [6]); 236 nM in assay [2] (setting [7]); 113 nM in assay [3]. For the same molecule, in assay [2], the CDK7/CDK12 is 0.5.
Regarding `O[C@H]1CNCC[C@@H]1CNc1cc(NCc2ccc(-c3ncccn3)cc2F)n2ncc(C3CC3)c2n1` [PPA-067], in assay [1], the “Ratio” value amounted to 25.00. For the same molecule, the IC50 in assay [1] (setting [4]) was 2.6 nM; in assay [1] (setting [5]), 2.6 nM; in assay [2] (setting [6]), 65 nM; in assay [2] (setting [7]), 65 nM; in assay [3] it was 562 nM. The CDK7/CDK12 in assay [2] worked out at 8.6.
`OC1CCN(c2cc(NCc3ccc(-c4ccccn4)cc3)n3ncc(C4CC4)c3n2)CC1` [PPA-050]: the “Ratio” value in assay [1] is on record as 9.44. Also, the IC50 in assay [1] (setting [4]) amounted to 44.8 nM; in assay [1] (setting [5]), 44.8 nM; in assay [2] (setting [6]) it was 423 nM; in assay [2] (setting [7]), 423 nM; in assay [3], 10500 nM. In addition, the CDK7/CDK12 in assay [2] came out at 24.8.
Regarding `c1ccc(-c2ccc(CNc3cc(N[C@@H]4CCNC4)nc4c(C5CC5)cnn34)cc2)nc1` [PPA-043], the “Ratio” value in assay [1] worked out at 18.54. The IC50 is 13.7 nM in assay [1] (setting [4]); 13.7 nM in assay [1] (setting [5]); 254 nM in assay [2] (setting [6]); 254 nM in assay [2] (setting [7]); 6080 nM in assay [3]. For the same molecule, the CDK7/CDK12 in assay [2] came out at 23.9.
With `O[C@H]1CNCC[C@@H]1CNc1cc(NCc2ccc(-n3cccc3)cc2)n2ncc(C3CC3)c2n1` [PPA-017], the “Ratio” value in assay [1] is 63.89. For the same molecule, the IC50 in assay [1] (setting [4]) was found to be 1.8 nM; in assay [1] (setting [5]) it was 1.8 nM; in assay [2] (setting [6]), 115 nM; in assay [2] (setting [7]), 115 nM; in assay [3], 337 nM. Moreover, the CDK7/CDK12 in assay [2] was 2.9.
